# Experiments:
# Type in all cases: cell-based
# [1] = Mitochondria toxicity assay with PC3 cells, in-cell ELISA COX-1; details: 5 days treatment
# Procedure, shortened: (§1)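 This in-cell ELISA was run on fixed, permeabilized PC3 cells after 5-day exposure to titrated compound, with cytotoxicity measured on a duplicate plate. Results are reported as categories A (<1.0 μM) to E (>100.0 μM).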
# PC3 cells = test: Mitochondria toxicity assay with PC3 cells, cytotoxicity (Cell Titer Glo); details: Homo sapiens, PC-3, 120 h, 5 days treatment
# Procedure, shortened: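 PC3 cells in F-12K with 10% FBS exposed to a compound dose titration for 5 days at 37° C, 5% CO2. Viability by Cell Titer Glo luminescence after 30 min at room temperature; values binned A (<1.0 μM) to E (>100.0 μM).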
# [2] = tested on: SDH-A (succinate dehydrogenase-A); test: Mitochondria toxicity assay with PC3 cells, in-cell ELISA SDH-A; details: 5 days treatment
# Procedure, shortened: as §1
# THP1-Dual KO-TREX1 cells = test: THP1 TREX1 KO inhibition assay (type 1 interferon response); details: Homo sapiens, 144 h, type 1 interferon (QUANTI-LUC), 1 μM 5-aza-2′-deoxycytidine, six days
# Experimental: Exemplary compounds were tested for their ability to alter the type 1 interferon response in THP1 Dual TREX1 KG cells treated with 5-aza-2′-deoxycytidine. Assay procedures and results are described below.
# THP1 Dual TREX1 KG cells were purchased from Invivogen. The THP1-Dual™ KO-TREX1 cells were cultured in RPMI 1640, 10% heat-inactivated fetal bovine serum, 25 mM HEPES, 10 μg/mL blasticidin, and 100 μg/mL zeocin. THP1-Dual™ KO-TREX1 cells were treated with a dose titration of a test compound alone or in the presence of 1 μM 5-aza-2′-deoxycytidine (Sigma-Aldrich, cat #189825). Type 1 Interferon and cell viability were assessed after six days of treatment.
# Stock solution of the test compound was prepared in DMSO followed by a three-fold dilution in DMSO. Additional 50× dilution was prepared in cell culture media for each dilution. 10 μL of diluted test compound was then added to a 96-well plate.
# THP1-Dual™ KO-TREX1 cells were treated with either 1×PBS or 1 μM 5-aza-2′-deoxycytidine. […] of the THP1-Dual™ KO-TREX1 cells from either treatment were added to each well of the 96-well plate containing the test compound titration at 50,000 cells/well. Cells were incubated at 37° C., 5% CO2 in a humidified incubator for six days. Cells treated with 1 μM 5-aza-2′-deoxycytidine were added at the same density as above and incubated at 37° C., 5% CO2 in a humidified incubator for six days. On day six, 25 μL of cell supernatant was transferred to a 96-well white-walled plate, followed by addition to each well of 50 μL of QUANTI-LUC solution containing stabilizer. Luminescence was detected on a plate reader according to the manufacturer's instructions.
# The remaining cells were assessed for cell viability by adding 25 μL of CellTiter-Glo (Promega, G9683) solution to each well, and being placed on a shaker for 10 minutes at room temperature. Luminescence was detected on a plate reader, according to the manufacturer's instructions.
# In the tables “A” represents values≤0.050 μM; “B” represents values from >0.050 μM to ≤0.100 μM; “C” represents values from >0.100 μM to ≤0.250 μM; “D” represents values from >0.250 μM to ≤1 μM; “E” represents values>1 μM; and “NT”=not tested: […]
SMILES,IC50 (THP1-Dual KO-TREX1 cells),IC50 [1],IC50 (PC3 cells),IC50 [2]
"C=C[C@]1(CO)O[C@@H](n2cc(F)c(N)nc2=O)[C@@H](O)[C@@H]1O [Compound 75, 4-amino-1-((2R,3S,4S,5R)-3,4-dihydroxy-5-(hydroxymethyl)-5-vinyltetrahydrofuran-2-yl)-5-fluoropyrimidin-2(1H)-one]",> 1 µM,> 100 µM,> 100 µM,> 100 µM
"C=C[C@]1(CO)O[C@@H](n2cc(F)c(N)nc2=O)[C@@H](F)[C@@H]1O [Compound 76, 4-amino-1-[(2R,3S,4R,5R)-5-ethenyl-3-fluoro-4-hydroxy-5-(hydroxymethyl)oxolan-2-yl]-5-fluoropyrimidin-2-one]",> 1 µM,1 to 10 µM,> 100 µM,1 to 10 µM
"CC[C@]1(CO)O[C@@H](n2cc(F)c(N)nc2=O)[C@@H](O)[C@@H]1O [Compound 78, 4-amino-1-((2R,3S,4S,5R)-5-ethyl-3,4-dihydroxy-5-(hydroxymethyl)tetrahydrofuran-2-yl)-5-fluoropyrimidin-2(1H)-one]",> 1 µM,> 100 µM,> 100 µM,> 100 µM
"C=C[C@]1(CO)O[C@@H](n2cnc3c(N)nc(F)nc32)[C@@H](F)[C@@H]1O [Compound 80, (2R,3R,4S,5R)-5-(6-amino-2-fluoropurin-9-yl)-2-ethenyl-4-fluoro-2-(hydroxymethyl)oxolan-3-ol]",> 1 µM,50 to 100 µM,> 100 µM,> 100 µM
"CC[C@]1(CO)O[C@@H](n2cnc3c(N)nc(F)nc32)[C@@H](F)[C@@H]1O [Compound 81, (2R,3R,4S,5R)-5-(6-amino-2-fluoropurin-9-yl)-2-ethyl-4-fluoro-2-(hydroxymethyl)oxolan-3-ol]",> 1 µM,> 100 µM,> 100 µM,> 100 µM
"CC[C@]1(CO)O[C@@H](n2cc(F)c(N)nc2=O)C[C@@H]1O [Compound 82, 4-amino-1-((2R,4S,5R)-5-ethyl-4-hydroxy-5-(hydroxymethyl)-tetrahydrofuran-2-yl)-5-fluoropyrimidin-2(1H)-one]",> 1 µM,> 100 µM,> 100 µM,> 100 µM
"[N-]=[N+]=N[C@]1(CO)O[C@@H](c2ccc3c(N)ncnn23)C[C@@H]1O [Compound 92, (2R,3S,5R)-5-(4-aminopyrrolo[2,1-f][1,2,4]triazin-7-yl)-2-azido-2-(hydroxymethyl) tetrahydrofuran-3-ol]",> 1 µM,< 1 µM,1 to 10 µM,1 to 10 µM
"C#C[C@]1(CO)O[C@@H](n2cc(F)c(N)nc2=O)C[C@@H]1O [Compound 107, 4-amino-1-((2R,4S,5R)-5-ethynyl-4-hydroxy-5-(hydroxymethyl)tetrahydro-furan-2-yl)-5-fluoropyrimidin-2(1H)-one]",> 1 µM,> 100 µM,> 100 µM,> 100 µM
"C=C[C@]1(CO)O[C@@H](n2cnc3c(N)nc(F)nc32)C[C@@H]1O [Compound 109, (2R,3S,5R)-5-(6-amino-2-fluoro-9H-purin-9-yl)-2-(hydroxymethyl)-2-vinyltetrahydrofuran-3-ol]",> 1 µM,1 to 10 µM,1 to 10 µM,1 to 10 µM
"Nc1ccn([C@H]2C[C@H](O)[C@](CO)(C(F)F)O2)c(=O)n1 [Compound 110, 4-amino-1-((2R,4S,5R)-5-(difluoromethyl)-4-hydroxy-5-(hydroxymethyl)-tetrahydrofuran-2-yl)pyrimidin-2(1H)-one]",> 1 µM,> 100 µM,> 100 µM,> 100 µM
"C#C[C@]1(CO)O[C@@H](n2cc(F)c(N)nc2=O)[C@@H](F)[C@@H]1O [Compound 112, 4-amino-1-((2R,3S,4R,5R)-5-ethynyl-3-fluoro-4-hydroxy-5-(hydroxymethyl)tetrahydrofuran-2-yl)-5-fluoropyrimidin-2(1H)-one]",> 1 µM,< 1 µM,> 100 µM,< 1 µM

# Further lines, with some results ahead:
IC50 (THP1-Dual KO-TREX1 cells),SMILES,IC50 [1],IC50 (PC3 cells),IC50 [2]
> 1 µM,"C=C[C@]1(CO)O[C@@H](n2cnc3c(=O)[nH]c(N)nc32)[C@@H](F)[C@@H]1O [Compound 63, 2-amino-9-[(2R,3S,4R,5R)-5-ethenyl-3-fluoro-4-hydroxy-5-(hydroxymethyl)oxolan-2-yl]-1H-purin-6-one]",10 to 50 µM,10 to 50 µM,10 to 50 µM
> 1 µM,"CC[C@]1(CO)O[C@@H](n2cnc3c(N)nc(F)nc32)C[C@@H]1O [Compound 64, (2R,3S,5R)-5-(6-amino-2-fluoro-9H-purin-9-yl)-2-ethyl-2-(hydroxymethyl)tetrahydrofuran-3-ol]",< 1 µM,< 1 µM,< 1 µM
0.25 to 1 µM,"Nc1nc(=O)n([C@H]2C[C@H](O)[C@](CO)(C(F)F)O2)cc1F [Compound 65, 4-amino-1-[(2R,4S,5R)-5-(difluoromethyl)-4-hydroxy-5-(hydroxymethyl)oxolan-2-yl]-5-fluoropyrimidin-2-one]",> 100 µM,> 100 µM,> 100 µM
> 1 µM,"Nc1nc(=O)n([C@H]2C[C@H](O)[C@](CO)(C(F)(F)F)O2)cc1F [Compound 66, 4-amino-5-fluoro-1-((2R,4S,5R)-4-hydroxy-5-(hydroxymethyl)-5-(trifluoromethyl)tetrahydrofuran-2-yl)pyrimidin-2(1H)-one]",> 100 µM,> 100 µM,> 100 µM
> 1 µM,"CC[C@]1(CO)O[C@@H](n2cnc3c(=O)[nH]c(N)nc32)[C@@H](F)[C@@H]1O [Compound 68, 2-amino-9-((2R,3S,4R,5R)-5-ethyl-3-fluoro-4-hydroxy-5-(hydroxymethyl)tetrahydrofuran-2-yl)-1,9-dihydro-6H-purin-6-one]",10 to 50 µM,10 to 50 µM,10 to 50 µM
> 1 µM,C=C[C@]1(CO)O[C@@H](n2cnc3c(=O)[nH]c(N)nc32)C[C@@H]1O [Compound 69],1 to 10 µM,1 to 10 µM,1 to 10 µM
> 1 µM,"Nc1nc2c(ncn2[C@@H]2O[C@@](CO)(CCl)[C@@H](O)[C@@H]2F)c(=O)[nH]1 [Compound 70, 2-amino-9-((2R,3S,4R,5R)-5-(chloromethyl)-3-fluoro-4-hydroxy-5-(hydroxymethyl)-tetrahydrofuran-2-yl)-1,9-dihydro-6H-purin-6-one]",10 to 50 µM,10 to 50 µM,10 to 50 µM
> 1 µM,"C=C[C@]1(CO)O[C@@H](n2cc(F)c(N)nc2=O)C[C@@H]1O [Compound 74, 4-amino-5-fluoro-1-((2R,4S,5R)-4-hydroxy-5-(hydroxymethyl)-5-vinyltetrahydrofuran-2-yl)pyrimidin-2(1H)-one]",> 100 µM,> 100 µM,> 100 µM
0.25 to 1 µM,"C[C@]1(CO)O[C@@H](n2ccc(N)nc2=O)C[C@@H]1O [Compound 106, 4-amino-1-((2R,4S,5R)-4-hydroxy-5-(hydroxymethyl)-5-methyltetrahydrofuran-2-yl)pyrimidin-2(1H)-one]",< 1 µM,< 1 µM,< 1 µM
0.25 to 1 µM,"[N-]=[N+]=N[C@]1(CO)O[C@@H](n2cnc3c(=O)[nH]c(N)nc32)C[C@@H]1O [Compound 108, 2-amino-9-((2R,4S,5R)-5-azido-4-hydroxy-5-(hydroxymethyl)tetrahydro-furan-2-yl)-1,9-dihydro-6H-purin-6-one]",1 to 10 µM,1 to 10 µM,10 to 50 µM
0.05 to 0.1 µM,"Nc1ccn([C@@H]2O[C@H](CO)[C@@H](O)C2(F)F)c(=O)n1 [Compound 111, 4-amino-1-((2R,4R,5R)-3,3-difluoro-4-hydroxy-5-(hydroxymethyl)tetrahydro-furan-2-yl)pyrimidin-2(1H)-one]",< 1 µM,< 1 µM,< 1 µM

# From patent publication US12187758B2 (ROME Therapeutics, Inc., priority 2022, dated 2025)
